Activity calls are given as the source filed them. The rule behind the calls is not given here.
Columns and labels:
[1] = Fraction unbound in SCID-Beige mouse plasma xenografted with human OPM2 cells at 1 to 3 mg/kg, po; type: ADME, organism-based
[2] = test system: Liver; assay: Unbound intrinsic clearance in rat liver microsomes; type: ADME, microsome
[3] = target: T1, Bromodomain-containing protein 4 (Homo sapiens, UniProt O60885); assay: Inhibition of BRD4 in human NCI-H1299 cells after 24 hrs by Bright-Glo luciferase reporter gene assay; type: cell-based
[4] = Fraction unbound in mouse plasma at 1 uM after 4 hrs by LC-MS/MS analysis; type: ADME, cell-free
[5] = test system: OPM-2; assay: Antitumor activity against human OPM2 cells xenografted in SCID-Beige mouse assessed as tumor growth inhibition at 1 mg/kg, po qd for 21 days relative to control; type: functional; conditions: OPM-2, po, 504 h, read-out: TGI
[6] = test system: OPM-2; assay: Antitumor activity against human OPM2 cells xenografted in SCID-Beige mouse assessed as tumor growth inhibition at 1 to 3 mg/kg, po qd measured after 21 days; type: functional, organism-based
[7] = test system: Mus musculus; assay: Fraction absorbed in portal vein of mouse at 3 mg/kg, iv or 10 mg/kg, po; type: ADME, organism-based; conditions: in vivo
[8] = test system: MX1; assay: Antiproliferative activity against human MX1 cells after 72 hrs by Cell Titer Glo assay; type: functional, cell-based; conditions: MX1, 72 h
[9] = test system: OPM-2; assay: Antiproliferative activity against human OPM2 cells; type: functional, cell-based
[10] = test system: Mus musculus; assay: Dose normalized fAUC in mouse at 3 mg/kg, iv or 10 mg/kg, po; type: ADME, organism-based; conditions: in vivo
[11] = test system: Mus musculus; assay: Unbound plasma clearance in mouse at 3 mg/kg, iv or 10 mg/kg, po; type: ADME, organism-based; conditions: in vivo
[12] = test system: Mus musculus; assay: Time required to reach in vitro EC50 for human OPM2 cells in SCID-Beige mouse xenografted with human OPM2 cells at 3 mg/kg, po
[13] = Oral bioavailability in mouse at 10 mg/kg; type: ADME, organism-based; conditions: in vivo
[14] = test system: Mus musculus; assay: Toxicity in SCID-Beige mouse xenografted with human OPM2 cells assessed as weight loss at 3 mg/kg, po qd for 21 days (reference value: 2%); type: organism-based; conditions: in vivo, 504 h
[15] = Lipophilicity, log D of the compound; type: physicochemical; conditions: octanol/water
[16] = test system: Mus musculus; assay: Toxicity in SCID-Beige mouse xenografted with human OPM2 cells assessed as weight loss at 1 mg/kg, po qd for 21 days (reference value: 2%); type: organism-based; conditions: in vivo, 504 h
[17] = target: T1, Bromodomain-containing protein 4; assay: Inhibition of human N-terminal His6-tagged BRD4 BD1-BD2 (57 to 550 residues) expressed in EScherichia coli BL21(DE3) after 1 hr by Alexa-647-conjugated probe based TR-FRET assay
[18] = test system: OPM-2; assay: Antitumor activity against human OPM2 cells xenografted in SCID-Beige mouse assessed as tumor growth inhibition at 3 mg/kg, po qd for 21 days relative to control; type: functional; conditions: OPM-2, po, 504 h, read-out: TGI
[19] = test system: Plasma; assay: Free plasma concentration required to reach in vitro EC50 for human OPM2 cells in SCID-Beige mouse xenografted with human OPM2 cells at 1 to 3 mg/kg, po
[20] = test system: Liver; assay: Unbound intrinsic clearance in mouse liver microsomes; type: ADME, microsome
[21] = test system: Liver; assay: Unbound intrinsic clearance in human liver microsomes; type: ADME, microsome
[22] = test system: Rattus norvegicus; assay: Unbound clearance in rat at 1 mg/kg, iv or 1 mg/kg, po; type: ADME, organism-based; conditions: in vivo
[23] = Oral bioavailability in rat at 1 mg/kg; type: ADME, organism-based; conditions: in vivo
[24] = test system: Rattus norvegicus; assay: Fraction absorbed in portal vein of rat at 1 mg/kg, iv or 1 mg/kg, po; type: ADME, organism-based; conditions: in vivo
[25] = test system: Mus musculus; assay: Unbound AUC in mouse at 1 mg/kg, po; type: ADME, organism-based; conditions: in vivo
[26] = test system: Rattus norvegicus; assay: Unbound AUC in rat at 1 mg/kg, po; type: ADME, organism-based; conditions: in vivo
[27] = Oral bioavailability in mouse at 1 mg/kg; type: ADME, organism-based; conditions: in vivo
[28] = Permeability of the compound by PAMPA; type: physicochemical; conditions: read-out: permeability
[29] = test system: Mus musculus; assay: Fraction absorbed in portal vein of mouse at 1 mg/kg, iv or 1 mg/kg, po; type: ADME, organism-based; conditions: in vivo
[30] = Fraction unbound in rat plasma; type: ADME, cell-free
[31] = test system: Mus musculus; assay: Unbound clearance in mouse at 1 mg/kg, iv or 1 mg/kg, po; type: ADME, organism-based; conditions: in vivo
[32] = test system: OPM-2; assay: Antitumor activity against human OPM2 cells xenografted in SCID-Beige mouse assessed as tumor growth inhibition at 2 mg/kg, po qd for 21 days relative to control; type: functional; conditions: OPM-2, po, 504 h, read-out: TGI
[33] = Fraction unbound in SCID-Beige mouse plasma xenografted with human OPM2 cells at 1 to 2 mg/kg, po; type: ADME, organism-based
[34] = test system: OPM-2; assay: Antitumor activity against human OPM2 cells xenografted in SCID-Beige mouse assessed as tumor growth inhibition compound administered po qd for 21 days; type: functional, organism-based
[35] = test system: Mus musculus; assay: Time required to reach in vitro EC50 for human OPM2 cells in SCID-Beige mouse xenografted with human OPM2 cells at 2 mg/kg, po
[36] = test system: Plasma; assay: Free plasma concentration required to reach in vitro EC50 for human OPM2 cells in SCID-Beige mouse xenografted with human OPM2 cells at 1 to 2 mg/kg, po
[37] = test system: Mus musculus; assay: Toxicity in SCID-Beige mouse xenografted with human OPM2 cells assessed as weight loss at 2 mg/kg, po qd for 21 days (reference value: 2%); type: organism-based; conditions: in vivo, 504 h

CL free [2]	EC50 [3]	fraction unbound at 4 h, 1 µM [4]	logD [15]	Ki [17]	CL free [20]	CL free [21]	CL free [22]	bioavailability [23]	FaFg [24]	fAUC [25]	fAUC [26]	bioavailability [27]	Papp [28]	FaFg [29]	fraction unbound [30]	CL free [31]	SMILES	inhibition in vivo at 1 mg/kg [5]	EC50 [8]	EC50 [9]	other results
250 mL/min/kg	56 nM	0.14	2.8 to 4.3	13 nM	267 mL/min/kg	76.7 mL/min/kg											CCS(=O)(=O)Nc1ccc(Oc2ccc(F)cc2F)c(-c2cn(C)c(=O)cc2OC)c1	66%	47 nM	23 nM	fraction unbound [1]: 0.14; TGI [6]: inactive; FaFg [7]: 0.89; fAUC/dose [10]: 0.081 µg·h/mL per mg/kg; CL free [11]: 183 mL/min/kg; Time [12]: 6.5 h; bioavailability [13]: 63%; Activity [14]: 5%; Activity [16]: 6%; inhibition in vivo at 3 mg/kg [18]: 73%; Cp(f) [19]: 0.16 µM
107 mL/min/kg	24 nM	0.12	2.8 to 4.3	11 nM	158 mL/min/kg	56.7 mL/min/kg	142 mL/min/kg	2.8%	0.42	85 ng·h/mL	2 ng·h/mL	45%	12 ×10⁻⁶ cm/s	0.51	0.24	88.3 mL/min/kg	Cn1cc2c(cc1=O)OCCCCc1cc(Cl)ccc1Oc1ncc(CS(C)(=O)=O)cc1-2		24 nM		
73.3 mL/min/kg	34 nM	0.04	2.8 to 4.3	8.9 nM	267 mL/min/kg	58.3 mL/min/kg	233 mL/min/kg	95%	1	100 ng·h/mL	69 ng·h/mL	84%	15 ×10⁻⁶ cm/s	0.9	0.09	140 mL/min/kg	CCS(=O)(=O)c1cnc2c(c1)-c1cn(C)c(=O)cc1OCCCCc1cc(Cl)ccc1O2	73%	33 nM	12 nM	inhibition in vivo at 2 mg/kg [32]: 85%; fraction unbound [33]: 0.04; TGI [34]: Dose-dependent effect; Time [35]: >12 h; Cp(f) [36]: 0.3 µM; Activity [16]: 4%; Activity [37]: 4%
433 mL/min/kg	5.1 nM	0.01	2.8 to 4.3	1.5 nM	2330 mL/min/kg	< 217 mL/min/kg	2330 mL/min/kg	16%	0.44	16 ng·h/mL	1 ng·h/mL	39%	2.2 ×10⁻⁶ cm/s	0.41	0.02	417 mL/min/kg	CCS(=O)(=O)Nc1ccc2c(c1)-c1cn(C)c(=O)cc1OCCCCc1cc(Cl)ccc1O2		5.7 nM		

— ChEMBL document CHEMBL4049425, “Fragment-Based, Structure-Enabled Discovery of Novel Pyridones and Pyridone Macrocycles as Potent Bromodomain and Extra-Terminal Domain (BET) Family Bromodomain Inhibitors” (J Med Chem, 2017)
